Test results taken from patent US20250263408A1 (Uniquest Pty Ltd, priority 2022, published 2025).

How the values were obtained:
Syk = target: T1, Syk (Homo sapiens, UniProt P43405); assay: Syk Biochemical Assay (ADP-Glo luminescence); settings: ATP 40 μM final, 60 minutes, read-out: SYK Biochem IC50
T1 construct: purchased Promega

Ba/F3-Syk cells = target: T2, Ba/F3-Syk cells (Homo sapiens, UniProt P43405); assay: Ba/F3 Proliferation Assay, Ba/F3-Syk cells (Resazurin); assay type: cell-based; settings: 48-hour incubation
T2 construct: fused on or other part: Possible but unprinted fusion partner: TEL (ETV6), the usual partner for Ba/F3 lines transformed by Syk; Nothing on a partner is printed

[1] = test system: Ba/F3-WT (wild type) cells; assay: Ba/F3 Proliferation Assay, Ba/F3-WT (wild type) cells with mIL-3 (Resazurin); assay type: cell-based; settings: Mus musculus, BaF3, 48 h, Ba/F3-WT cells +mIL-3, 48-hour incubation
[2] = Brain Penetration Assays: Mouse Pharmacokinetics (plasma and brain levels after oral dose); assay type: in vivo; settings: male, CD-1, mouse, mice, 1 hour post oral dose of 10 mg/kg; for concentration at 1 h: brain (free, unbound); for Kp at 1 h: brain / plasma (unbound), read-out: Kpu,u (ratio of unbound brain levels to unbound plasma levels)
Method: Male CD-1 mice (6-8 weeks of age, 3 animals per timepoint) were dosed via oral gavage (10 mL/kg) with compound (10 mg/kg, 0.5% methylcellulose in water). Blood samples were taken either non-terminal via saphenous vein or terminal via cardiac puncture and stored in 1.5 mL Eppendorf tubes containing 0.010 mL of 10% K2EDTA, mixed gently and placed in ice before centrifugation. Blood was centrifuged at 10,000 r.p.m. for 2 minutes, plasma harvested and stored at −80° C. Following blood collection at the terminal time points, animals were sacrificed with C02 and brains quickly removed, rinsed with cold saline (0.9% NaCl), surface vasculature ruptured, blotted with dry gauze or tissue and weighed. The whole brain was homogenized in 1.0 mL ice cold phosphate-buffered saline, pH 7.4 and the homogenates stored at −80° C. Compound concentrations were quantified in plasma and brain tissue by LC-MS/MS using a partially validated bioanalytical method.
(§1) The Rapid Equilibrium Dialysis (RED) method was employed with plasma (200 μL, BioIVT, USA) in phosphate buffered saline (PBS, 350 μL) incubated with compound (1 μM) at 37° C. for 5 hours shaking at 450 r.p.m. Acetonitrile (3 volumes) was added and the sample centrifuged for 5 minutes and 1050 r.p.m. then for 15 minutes at 4000 r.p.m. Compound concentrations were quantified via LC-MS/MS from supernatant and free drug was calculated.
as §1, with “RED” for “Rapid Equilibrium Dialysis (RED)”, “mouse brain homogenate (10% w/v prepared in-house))” for “plasma (200 μL, BioIVT, USA) in phosphate buffered saline (PBS, 350 μL)”, “14” for “15”

MDR1 (Pgp) = assay: Permeability Assay, bi-directional flux in MDCKII-MDR1 cells; assay type: in vitro ADME, canine; settings: dog; for Papp at 2 h, 10 PM: MDCK-MDR1, 2 hours at 37° C., concentration printed as 10 PM; for efflux ratio at 2 h, 10 PM: MDCK-MDR1, ratio >2 indicates the compound is effluxed, read-out: efflux ratio (PappB-A/PappA-B)
Method: The assay was performed using Charles River/Agilux default assay conditions and default acetonitrile extraction and bioanalytical conditions. The assay was performed using MDCKII-MDR1 (Pgp) cells (canine MDCK stably transfected with MDR1). Bi-directional (A-B and B-A) flux measurements were carried out in triplicate aliquots from duplicate wells. The compounds were incubated for 2 hours at 37° C. at a concentration of 10 PM. The efflux ratio is the ratio of PappB-A/PappA-B, and a ratio >2 indicates the compound is effluxed.

| IC50 (Syk) [nM] | EC50 (Ba/F3-Syk cells) [nM] | EC50 [1] [nM] | concentration at 1 h [2] [nM] | Kp at 1 h [2] | Papp at 2 h, 10 PM (MDR1 (Pgp)) [×10⁻⁶ cm/s] | efflux ratio at 2 h, 10 PM (MDR1 (Pgp)) | Compound |
| --- | --- | --- | --- | --- | --- | --- | --- |
| 32.1 | 21.4 | > 10000 | ≤ 10 | 0.1 to 0.2 | – | – | CCn1ccc(-c2cc3ncccc3c(OC[C@@H]3CNCCCO3)n2)c1 [Compound 6.26, 7-(1-ethyl-1H-pyrrol-3-yl)-5-{[(2S)-1,4-oxazepan-2-yl]methoxy}-1,6-naphthyridine] |
| 37.8 | 87.5 | 4170 | > 25 | 0.2 to 0.3 | > 20 | ≤ 1 | Cn1ccc(-c2cc3ncccc3c(OC[C@@H]3CNCCO3)n2)c1 [Compound 2.20, 7-(1-methyl-1H-pyrrol-3-yl)-5-{[(2S)-morpholin-2-yl]methoxy}-1,6-naphthyridine] |
| 41.8 | 15 | 2680 | ≤ 10 | 0.2 to 0.3 | – | – | CC(C)n1ccc(-c2cc3ncccc3c(O[C@H](C)[C@@H]3CNCCO3)n2)c1 [Compound 6.28, 5-[(1R)-1-[(2S)-morpholin-2-yl]ethoxy]-7-[1-(propan-2-yl)-1H-pyrrol-3-yl]-1,6-naphthyridine] |
| 29.5 | 18.6 | 1860 | ≤ 25 | 0.1 to 0.2 | – | – | C[C@@H](Oc1nc(-c2cnn(C(C)(C)C)c2)cc2ncccc12)[C@@H]1CNCCO1 [Compound 2.67, 7-(1-tert-butyl-1H-pyrazol-4-yl)-5-[(1R)-1-[(2S)-morpholin-2-yl]ethoxy]-1,6-naphthyridine] |
| 9.7 | 14.4 | 1700 | ≤ 10 | 0.2 to 0.3 | – | – | CC1(C)CNC[C@@H](COc2cc(-c3ccn(C4COC4)c3)cc3ncccc23)O1 [Compound 7.11, 5-{[(2S)-6,6-dimethylmorpholin-2-yl]methoxy}-7-[1-(oxetan-3-yl)-1H-pyrrol-3-yl]quinoline] |
| 10.6 | 23.3 | 2120 | ≤ 25 | 0.05 to 0.1 | 15 to 20 | 1 to 2 | CC(C)n1cc(-c2cc(OC[C@@H]3CNCC(C)(C)O3)c3cccnc3c2)cn1 [Compound 3.6, 5-{[(2S)-6,6-dimethylmorpholin-2-yl]methoxy}-7-[1-(propan-2-yl)-1H-pyrazol-4-yl]quinoline] |
| 35 | 53.2 | 4610 | > 25 | 0.2 to 0.3 | – | – | Cn1ccc(-c2cc(OC[C@@H]3CNCC(C)(C)O3)c3cccnc3c2)c1 [Compound 3.10, 5-{[(2S)-6,6-dimethylmorpholin-2-yl]methoxy}-7-(1-methyl-1H-pyrrol-3-yl)quinoline] |
| 8.1 | 45.5 | 6070 | ≤ 25 | > 0.3 | – | – | Cn1ccc(-c2cc3ncccc3c(OC[C@@H]3CNCC(C)(C)O3)n2)c1 [Compound 2.51, 5-{[(2S)-6,6-dimethylmorpholin-2-yl]methoxy}-7-(1-methyl-1H-pyrrol-3-yl)-1,6-naphthyridine] |
| – | 14.5 | 1020 | ≤ 25 | 0.05 to 0.1 | – | – | CC(C)n1cc(-c2cc3ncccc3c(O[C@H](C)[C@@H]3CNCCO3)n2)cn1 [Compound 2.66, 5-[(1R)-1-[(2S)-morpholin-2-yl]ethoxy]-7-[1-(propan-2-yl)-1H-pyrazol-4-yl]-1,6-naphthyridine] |
| 31 | 53.1 | 2110 | ≤ 10 | > 0.3 | – | – | C[C@@H](Oc1nc(-c2ccn(C)c2)cc2ncccc12)[C@@H]1CNCCO1 [Compound 2.44, 7-(1-methyl-1H-pyrrol-3-yl)-5-[(1R)-1-[(2S)-morpholin-2-yl]ethoxy]-1,6-naphthyridine] |
| 11.9 | 21.4 | 5020 | > 25 | 0.1 to 0.2 | – | – | CCn1ccc(-c2cc3ncccc3c(OC[C@@H]3CNCC(C)(C)O3)n2)c1 [Compound 6.19, 5-{[(2S)-6,6-dimethylmorpholin-2-yl]methoxy}-7-(1-ethyl-1H-pyrrol-3-yl)-1,6-naphthyridine] |
| 14.1 | 27.7 | 1390 | – | – | – | – | C[C@@H](Oc1nc(-c2ccn(CC(F)F)c2)cc2ncccc12)[C@@H]1CNCCO1 [Compound 6.30, 7-[1-(2,2-difluoroethyl)-1H-pyrrol-3-yl]-5-[(1R)-1-[(2S)-morpholin-2-yl]ethoxy]-1,6-naphthyridine] |
| 40.6 | 187 | 2360 | – | – | – | – | COCn1cc(-c2cc3ncccc3c(OC[C@@H]3CNCCO3)n2)cn1 [Compound 2.9, 7-[1-(methoxymethyl)-1H-pyrazol-4-yl]-5-{[(2S)-morpholin-2-yl]methoxy}-1,6-naphthyridine] |
| 23.5 | 48.4 | 4760 | – | – | – | – | Cn1cc(-c2cc3ncccc3c(OC[C@@H]3CNCC(C)(C)O3)n2)cn1 [Compound 2.32, 5-{[(2S)-6,6-dimethylmorpholin-2-yl]methoxy}-7-(1-methyl-1H-pyrazol-4-yl)-1,6-naphthyridine] |
| 21.3 | 106 | 1980 | – | – | – | – | COCCn1ccc(-c2cc3ncccc3c(OC[C@@H]3CNCCO3)n2)c1 [Compound 6.10, 7-[1-(2-methoxyethyl)-1H-pyrrol-3-yl]-5-{[(2S)-morpholin-2-yl]methoxy}-1,6-naphthyridine] |
| 209 | 487 | > 10000 | – | – | – | – | C1=C(c2cc3ncccc3c(OC[C@@H]3CNCCO3)n2)CCC1 [Compound 10.1, 7-(cyclopent-1-en-1-yl)-5-{[(2S)-morpholin-2-yl]methoxy}-1,6-naphthyridine] |
| 33.6 | 20.6 | 1100 | – | – | – | – | CCc1ccnc2cc(-c3cnn(C(C)(C)C)c3)nc(OC[C@@H]3CNCC(C)(C)O3)c12 [Compound 14.14, 7-(1-tert-butyl-1H-pyrazol-4-yl)-5-{[(2S)-6,6-dimethylmorpholin-2-yl]methoxy}-4-ethyl-1,6-naphthyridine] |
| 16.6 | 33.1 | 1570 | – | – | – | – | CC(C)[C@H]1CNC[C@@H](COc2nc(-c3cnn(C(C)(C)C)c3)cc3ncccc23)O1 [Compound 2.104, 7-(1-tert-butyl-1H-pyrazol-4-yl)-5-{[(2S,6S)-6-(propan-2-yl)morpholin-2-yl]methoxy}-1,6-naphthyridine] |
| 6.21 | 31.1 | 1550 | – | – | – | – | CC(C)(C)n1cc(-c2cc3ncccc3c(OC[C@@H]3CNC[C@H](C(F)F)O3)n2)cn1 [Compound 2.105, 7-(1-tert-butyl-1H-pyrazol-4-yl)-5-{[(2S,6R)-6-(difluoromethyl)morpholin-2-yl]methoxy}-1,6-naphthyridine] |

| Compound | IC50 (Syk) [nM] | EC50 (Ba/F3-Syk cells) [nM] | EC50 [1] [nM] | concentration at 1 h [2] [nM] | Kp at 1 h [2] | Papp at 2 h, 10 PM (MDR1 (Pgp)) [×10⁻⁶ cm/s] | efflux ratio at 2 h, 10 PM (MDR1 (Pgp)) |
| --- | --- | --- | --- | --- | --- | --- | --- |
| Cn1cc(-c2cc3ncccc3c(OC[C@@H]3CNCC4(CCC4)O3)n2)cn1 [Compound 2.55, 7-(1-methyl-1H-pyrazol-4-yl)-5-{[(6S)-5-oxa-8-azaspiro[3.5]nonan-6-yl]methoxy}-1,6-naphthyridine] | 29.7 | 43.8 | 3270 | > 25 | 0.05 to 0.1 | – | – |
